Results taken from article PMC5161573 (Nature, 2016).

Molecular target: α4β2 nicotinic receptor (α4 subunit) (Homo sapiens, UniProt P17787+P43681, P17787:INS355ER/P17787:DEL356-441/P43681:INS364ER/P43681:DEL365-581)

Structure (SMILES): CN1CCC[C@H]1c1cccnc1 [nicotine]
- X-ray co-crystal structure at 3.9 Å: Nicotine binds in the classical neurotransmitter site at the α-β interface, almost fully buried from solvent.
